Reference: patent US6380235B1, “Benzimidazolones and analogues” (American Home Products Corporation, priority 1999, dated 2002)
“And” between values parts separate entries of the source, which are not always exact repeats. Identical values can stand only once. Values belong to the compound of their own block, whether it stands above or below them.

Experiments:
[1] = system: rat uterine decidualization; assay: Rat decidualization assay; assay type: in vivo; details: ovariectomized female Sprague-Dawley rats; for Estimated average EC50 for dose-response curves (decidual response): s.c.
Protocol: 2. Rat Decidualization Assay
b. Animals (RACUC Protocol #5002)
The animals are treated once daily for seven days.
Uteri are removed and trimmed of fat.
Body weight: Mean total animal body weight (default-kg)
Decidual response: [(D-C)/C]×100%

human PR = biological target: T1, human PR (Homo sapiens, UniProt P06401); assay: PRE-luciferase assay in CV-1 cells (hPR CV-1); assay type: cell-based
T1 construct: expressed in transfected cells; host or cells: CV-1 cells, electroporated with pLEM-hPR-B and pGL3-2xPRE-luciferase
T1 sequence (P06401 1-933): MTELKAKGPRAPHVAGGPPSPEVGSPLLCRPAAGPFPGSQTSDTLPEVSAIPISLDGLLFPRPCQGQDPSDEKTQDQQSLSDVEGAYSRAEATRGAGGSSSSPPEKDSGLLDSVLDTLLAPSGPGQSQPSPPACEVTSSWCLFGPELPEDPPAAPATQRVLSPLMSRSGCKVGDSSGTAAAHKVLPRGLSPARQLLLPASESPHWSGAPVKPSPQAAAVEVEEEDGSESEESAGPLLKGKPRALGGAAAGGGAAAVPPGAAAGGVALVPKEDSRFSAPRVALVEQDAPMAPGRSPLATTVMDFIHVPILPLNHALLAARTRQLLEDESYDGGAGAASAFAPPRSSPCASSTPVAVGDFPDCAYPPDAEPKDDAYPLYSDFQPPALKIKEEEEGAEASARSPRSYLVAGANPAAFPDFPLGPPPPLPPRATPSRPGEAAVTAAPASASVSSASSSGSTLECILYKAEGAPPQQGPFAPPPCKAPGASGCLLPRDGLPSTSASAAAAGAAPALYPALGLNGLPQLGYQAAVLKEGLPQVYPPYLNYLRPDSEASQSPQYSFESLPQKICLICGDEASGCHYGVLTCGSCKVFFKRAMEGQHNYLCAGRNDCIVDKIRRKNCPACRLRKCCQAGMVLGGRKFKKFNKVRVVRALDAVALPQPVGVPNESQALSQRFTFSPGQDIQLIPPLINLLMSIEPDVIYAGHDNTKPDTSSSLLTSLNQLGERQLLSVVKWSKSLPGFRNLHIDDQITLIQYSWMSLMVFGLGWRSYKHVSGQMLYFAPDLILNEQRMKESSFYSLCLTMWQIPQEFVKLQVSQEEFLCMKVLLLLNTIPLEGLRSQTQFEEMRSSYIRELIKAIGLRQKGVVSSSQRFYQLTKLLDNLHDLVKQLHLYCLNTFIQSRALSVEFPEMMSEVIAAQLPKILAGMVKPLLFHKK
Protocol: 3. PRE-luciferase Assay in CV-1 Cells
The object of this assay is to determine a compound's progestational or antiprogestational potency based on its effect on PRE-luciferase reporter activity in CV-1 cells co-transfected with human PR and PRE-luciferase plasmids. The materials methods used in the assay are as follows.
DMEM (BioWhittaker) containing 10% (v/v) fetal bovine serum (heat inactivated), 0.1 mM MEM non-essential amino acids, 100 U/ml penicillin, […] streptomycin, and 2 mM GlutaMax (GIBCO, BRL). Experimental medium: DMEM (BioWhittaker), phenol red-free, containing 10% (v/v) charcoal-stripped fetal bovine serum (heat-inactivated), 0.1 mM MEM non-essential amino acids, 100 U/ml penicillin, […] streptomycin, and 2 mM GlutaMax (GIBCO, BRL).
b. Cell Culture Transfection Treatment, and Luciferase Assay
Stock CV-1 cells are maintained in growth medium. Co-transfection is done using 1.2×10^7 cells, […] pLEM plasmid with hPR-B inserted at Sphl and BamHl sites, 10 mg pGL3 plasmid with two PREs upstream of the luciferase sequence, and 50 mg sonicated calf thymus DNA as carrier DNA in […]. Electroporation is carried out at 260 V and […] in a Biorad Gene Pulser II. After electroporation, cells are resuspended in growth medium and plated in 96-well plate at 40,000 cells/well in 200 μl. Following overnight incubation, the medium is changed to experimental medium. […] Twenty-four hr. after treatment, the medium is discarded, cells are washed three times with D-PBS (GIBCO, BRL). Fifty μl of cell lysis buffer (Promega, Madison, Wis.) is added to each well and the plates are shaken for 15 min in a Titer Plate Shaker (Lab Line Instrument, Inc.). Luciferase activity is measured using luciferase reagents from Promega.
Each treatment consists of at least 4 replicates. Log transformed data are used for analysis of variance and nonlinear dose response curve fitting for both agonist and antagonist modes. Huber weighting is used to downweight the effects of outliers. EC50 or IC50 values are calculated from the retransformed values.

[2] = system: alkaline phosphatase activity in T47D cells; assay: T47D cell alkaline phosphatase assay; assay type: cell-based; details: antagonist activity in the presence of 1 nM progesterone, 24 hr
Protocol: 4. T47D Cell Alkaline Phosphatase Assay
The purpose of this assay is to identify progestins or antiprogestins by determining a compound's effect on alkaline phosphatase activity in T47D cells.
DMEM:F12 (1:1) (GIBCO, BRL) supplemented with 5% (v/v) charcoal stripped fetal bovine serum (not heat-inactivated), 100 U/ml penicillin, 100 μg/ml streptomycin, and 2 mM GlutaMax (GIBCO, BRL). b. Alkaline Phosphatase Assay Buffer
I. 0.1 M Tris-HCl, pH 9.8, containing 0.2% Triton X-100
II. 0.1 M Tris-HCl, pH 9.8 containing 4 mM p-nitrophenyl phosphate (Sigma). c. Cell Culture and Treatment
Frozen T47D cells were thawed in a 37° C. water bath and diluted to 280,000 cells/ml in culture medium. To each well in a 96-well plate (Falcon, Becton Dickinson Labware), 180 μl of diluted cell suspension was added. Twenty μl of reference or test compounds diluted in the culture medium was then added to each well. […] The cells were incubated at 37° C. in a 5% CO2/humidified atmosphere for 24 hr. […]
d. Alkaline Phosphatase Enzyme Assay
At the end of treatment, the medium was removed from the plate and fifty μl of assay buffer I was added to each well. The plates were shaken in a titer plate shaker for 15 min. […]
For reference and test compounds, a dose response curve is generated for dose (X-axis) vs. the rate of enzyme reaction (slope) (Y-axis). […] EC50 or IC50 values are calculated from the retransformed values.

T47D cells = assay: T47D cell proliferation assay (BrdU incorporation); assay type: cell-based
Protocol: 1. T47D Cell Proliferation Assay
The objective of this assay is the determination of progestational and antiprogestational potency by using a cell proliferation assay in T47D cells. A compound's effect on DNA synthesis in T47D cells is measured.
DMEM:F12 (1:1) (GIBCO, BRL) supplemented with 10% (v/v) fetal bovine serum (not heat-inactivated), 100 U/ml penicillin, […] streptomycin, and […] GlutaMax (GIBCO, BRL).
Minimum Essential Medium (MEM) (#51200-038GIBCO, BRL) phenol red-free supplemented with 0.5% charcoal stripped fetal bovine serum, 100 U/ml penicillin, […] streptomycin, and 2 mM GlutaMax (GIBCO, BRL). […]
At the end of BrdU labeling, the medium is removed and BrdU incorporation is measured using a cell proliferation ELISA kit (#RPN 250, Amersham Life Science) according to manufacturer's instructions. […] Then 25 μl of 1 M sulfuric acid is added to each well to stop color reaction and optical density is read in a plate reader at 450 nm within 5 min.
Square root-transformed data are used for analysis of variance and nonlinear dose response curve fitting for both agonist and antagonist modes. […] EC50 or IC50 values are calculated from the retransformed values.
Trimegestone and medroxyprogesterone acetate (MPA) are reference progestins and RU486 is the reference antiprogestin. All reference compounds are run in fill dose-response curves and the EC50 or IC50 values are calculated.

Structure (SMILES): C#C[C@]1(O)CC[C@H]2[C@@H]3CCC4=CC(=O)CC[C@@H]4[C@H]3C(=C)C[C@@]21CC [3-Ketodesogestrel]
Estimated EC50 for uterine weight (decidual response) ([1]; s.c. once daily for seven days, individual studies): 0.10 mg/kg, s.c. and 0.06 mg/kg, s.c. and 0.11 mg/kg, s.c.
Estimated average EC50 for dose-response curves (decidual response) [1]: 0.10 mg/kg, s.c.

Structure (SMILES): O=c1[nH]c2ccc(-c3cccc([N+](=O)[O-])c3)cc2n1Cc1ccccc1 [Compound 2, 1-Benzyl-6-(3-nitro-phenyl)-1,3-dihydro-benzoimidazol-2-one]
IC50 (human PR): 230 nM

Structure (SMILES): Cn1c(=O)[nH]c2cc(-c3cccc([N+](=O)[O-])c3)ccc21 [Compound 5]
IC50 (human PR): 750 nM

Structure (SMILES): CC(C)n1c(=O)[nH]c2ccc(-c3cccc([N+](=O)[O-])c3)cc21 [Compound 6]
IC50 (human PR): 147 nM

Structure (SMILES): O=C1CSc2cc(-c3cccc([N+](=O)[O-])c3)ccc2N1 [Compound B1, 7-(3-Nitro-phenyl)-4H-benzo[1,4]thiazin-3-one]
IC50 (human PR): 220 nM

Structure (SMILES): CCC1Sc2cc(-c3cccc([N+](=O)[O-])c3)ccc2NC1=O (stereo not shown) [Compound B2]
IC50 (human PR): 295 nM

Structure (SMILES): CN1CC(=O)Nc2ccc(-c3cc(C#N)cs3)cc21 [Compound C3, 5-(3,4-Dihydro-4-methyl-2-oxo-quinaxalin-6-yl)thiophene-3-carbonitrile]
IC50 [2]: 300 nM

Structure (SMILES): C#C[C@]1(O)CC[C@H]2[C@@H]3CCC4=CC(=O)CC[C@@H]4[C@H]3CC[C@@]21CC [Levonorgestrel]
Estimated average EC50 for dose-response curves (decidual response) [1]: 0.10 mg/kg, s.c.

Structure (SMILES): CC#C[C@]1(O)CC[C@H]2[C@@H]3CCC4=CC(=O)CCC4=C3[C@@H](c3ccc(N(C)C)cc3)C[C@@]21C [RU486]
IC50 (T47D cells; read-out: Estimated IC50 (half-maximal decrease in trimegestone induced BrdU incorporation), in presence of 0.03 nM trimegestone (b226 prints 0.1), individual studies): 0.016 nM and 0.018 nM

Structure (SMILES): C[C@H](O)C(=O)[C@@]1(C)CC[C@H]2[C@@H]3CCC4=CC(=O)CCC4=C3CC[C@@]21C [Trimegestone]
EC50 (T47D cells; individual studies, read-out: Estimated EC50 (half-maximal increase in BrdU incorporation)): 0.017 nM and 0.014 nM and 0.019 nM

Further lines, results first:

IC50 (human PR): 155 nM
Structure (SMILES): CC(C)n1c(=O)[nH]c2ccc(-c3cccc(Cl)c3)cc21 [Compound 7]

IC50 [2]: 600 nM
Structure (SMILES): CN1CC(=O)Nc2ccc(-c3cccc(Cl)c3)cc21 [Compound C1, 6-(3-Chloro-phenyl)-4-methyl-3,4-dihydro-1H-quinoxalin-4-one]

IC50 (human PR): 525 nM
Structure (SMILES): O=C1CNc2cc(-c3cccc(Cl)c3)ccc2N1 [Compound C2]

melting point: 110 to 115 °C
Structure (SMILES): CCCCN1CC(=O)Nc2ccc(-c3cccc(Cl)c3)cc21 [Compound C6, 4-(n-Butyl)-6-(3-chloro-phenyl)-3,4-dihydro-1H quinoxalin-2-one]

melting point: 174 to 176 °C
Structure (SMILES): CC(C)OC(=O)N1CC(=O)Nc2ccc(-c3cccc(Cl)c3)cc21 [Example 29, Isopropyl 7-(3-chlorophenyl)-3-oxo-3,4-dihydroquinoxalin-1(2H)-carboxylate]
